Results reported in ChEMBL document CHEMBL3352203, “Bioactive sulfur-containing sulochrin dimers and other metabolites from an Alternaria sp. isolate from a Hawaiian soil sample” (J Nat Prod, 2014).
In brackets after ≈: the same amount, converted by molar mass.

How the values were obtained:
Staphylococcus aureus = test: Antibacterial activity against Staphylococcus aureus ATCC 700787 after 17 hrs; type: functional; conditions: ATCC 700787, 17 h
[1] = Cytotoxicity against human MIAPaCa2 cells assessed as after 48 hrs by MTT assay; type: functional, cell-based; conditions: MIA PaCa-2, 48 h

## COC(=O)c1c(Sc2c(O)cc(OC)c(C(=O)c3c(O)cc(C)cc3O)c2C(=O)OC)c(O)cc(OC)c1C(=O)c1c(O)cc(C)cc1O
Staphylococcus aureus
  MIC: 4.1 µM (≈ 2.85 µg/mL)
[1]
  IC50: 50.8 µM

## COC(=O)c1c(Sc2c(O)cc3oc4cc(C)cc(O)c4c(=O)c3c2C(=O)OC)c(O)cc(OC)c1C(=O)c1c(O)cc(C)cc1O
Staphylococcus aureus
  MIC: 4.9 µM (≈ 3.25 µg/mL)
[1]
  IC50: 30.3 µM

## COC(=O)c1c(Sc2c(O)cc3oc4cc(C)cc(O)c4c(=O)c3c2C(=O)OC)c(O)cc2oc3cc(C)cc(O)c3c(=O)c12
Staphylococcus aureus
  MIC: 3.2 µM (≈ 2.02 µg/mL)
[1]
  IC50: 29.3 µM

## O=C(N[C@H](CO)[C@H](O)c1ccc([N+](=O)[O-])cc1)C(Cl)Cl [CHLORAMPHENICOL]
Staphylococcus aureus
  MIC: 5 µM (≈ 1.62 µg/mL)
